Results taken from patent US20100267561A1, “HERBICIDAL PYRIDAZINONE DERIVATIVES” (priority 2007, published 2010).

Columns and labels:
Format in all cases: in vivo
[1] = test system: goosegrass (Eleusine indica); assay: Test B pre-/postemergence plant response
Outline: (§1)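 Preemergence and postemergence (plants 2-18 cm, 1- to 4-leaf stage) applications used test chemicals in a non-phytotoxic solvent with surfactant. Plants were held in a greenhouse 13 to 15 days, then rated visually against controls on a 0-100 scale (0 no effect, 100 complete control).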

[2] = test system: common (oilseed) sunflower (Helianthus annuus); assay: Test B pre-/postemergence plant response; details: Preemergence
Outline: as §1

[3] = test system: large crabgrass (Digitaria sanguinalis); assay: Test B pre-/postemergence plant response
Outline: as §1

[4] = test system: downy bromegrass (Bromus tectorum); assay: Test B pre-/postemergence plant response
Outline: as §1

[5] = test system: velvetleaf (Abutilon theophrasti); assay: Test B pre-/postemergence plant response
Outline: as §1

[6] = test system: pigweed (Amaranthus retroflexus); assay: Test B pre-/postemergence plant response
Outline: as §1

[7] = test system: woolly cupgrass (Eriochloa villosa); assay: Test B pre-/postemergence plant response
Outline: as §1

soybean (Glycine max) = assay: Test B pre-/postemergence plant response
Outline: as §1

[8] = test system: cocklebur (Xanthium strumarium); assay: Test B pre-/postemergence plant response
Outline: as §1

[9] = test system: wheat (Triticum aestivum); assay: Test B pre-/postemergence plant response
Outline: as §1

[10] = test system: green foxtail (Setaria viridis); assay: Test B pre-/postemergence plant response
Outline: as §1

[11] = test system: catchweed bedstraw (Galium aparine); assay: Test B pre-/postemergence plant response; details: Preemergence, scale 0 to 100
Outline: as §1

rice (Oryza sativa) = assay: Test B flooded paddy test plant response
Outline: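 Compounds were added directly to paddy water over 2-leaf-stage plants in pots flooded 3 cm above soil, water depth maintained. Visual injury scored against controls after 13 to 15 days in greenhouse, 0 (none) to 100 (complete control); dash indicates no result.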

[12] = test system: Russian thistle (Salsola iberica); assay: Test B pre-/postemergence plant response; details: Preemergence
Outline: as §1

[13] = Postemergence, 31 g ai/ha, scale 0 to 100, 0 no effect, 100 complete control
[14] = Postemergence, 62 g ai/ha, scale 0 to 100
[15] = Postemergence, 125 g ai/ha, scale 0 to 100
[16] = Postemergence, 250 g ai/ha, scale 0 to 100
[17] = Preemergence, 31 g ai/ha, 0 to 100 scale, 0 no effect, 100 complete control
[18] = Preemergence, 62 g ai/ha, scale 0 to 100
[19] = Preemergence, 125 g ai/ha, scale 0 to 100
[20] = Preemergence, 250 g ai/ha, scale 0 to 100
[21] = 31 g ai/ha, 0 to 100 scale, 0 no effect, 100 complete control
[22] = Flood (flooded paddy test), 62 g ai/ha, scale 0 to 100, 0 no effect, 100 complete control
[23] = Flood (flooded paddy test), 125 g ai/ha, scale 0 to 100, 0 no effect, 100 complete control
[24] = Flood (flooded paddy test), 250 g ai/ha, scale 0 to 100, 0 no effect, 100 complete control
[25] = Flood, 31 g ai/ha, scale 0 to 100
[26] = Preemergence, 16 g ai/ha, scale 0 to 100 (0 no effect, 100 complete control)
[27] = Preemergence, 8 g ai/ha, scale 0 to 100
[28] = 16 g ai/ha, scale 0 to 100 (0 no effect, 100 complete control)

Compound: 5-[3-(4-chlorophenyl)-5-methyl-1H-pyrazol-1-yl]-1,6-dihydro-1-methyl-6-oxo-4-pyridazinyl-1-methylethyl carbonate [Compound 7]
- Plant response rating, Goosegrass [1, 13]: 95
- Plant response rating, Goosegrass [1, 14]: 100
- Plant response rating, Goosegrass [1, 15]: 100
- Plant response rating, Goosegrass [1, 16]: 100
- Plant response rating, Goosegrass [1, 17]: 85
- Plant response rating, Goosegrass [1, 18]: 90
- Plant response rating, Goosegrass [1, 19]: 100
- Plant response rating, Goosegrass [1, 20]: 100
- Plant response rating, Sunflower [2, 21]: 0
- Plant response rating, Sunflower ([2]; 62 g ai/ha, scale 0 to 100): 0
- Plant response rating, Sunflower ([2]; 125 g ai/ha, scale 0 to 100): 0
- Plant response rating, Sunflower ([2]; 250 g ai/ha, scale 0 to 100): 0
- Plant response rating, Crabgrass, Large [3, 13]: 100
- Plant response rating, Crabgrass, Large [3, 14]: 100
- Plant response rating, Crabgrass, Large [3, 15]: 100
- Plant response rating, Crabgrass, Large [3, 16]: 100
- Plant response rating, Crabgrass, Large [3, 17]: 100
- Plant response rating, Crabgrass, Large [3, 18]: 100
- Plant response rating, Crabgrass, Large [3, 19]: 100
- Plant response rating, Crabgrass, Large [3, 20]: 100
- Plant response rating, Bromegrass, Downy [4, 13]: 0
- Plant response rating, Bromegrass, Downy [4, 14]: 0
- Plant response rating, Bromegrass, Downy [4, 15]: 0
- Plant response rating, Bromegrass, Downy [4, 16]: 0
- Plant response rating, Bromegrass, Downy [4, 17]: 35
- Plant response rating, Bromegrass, Downy [4, 18]: 35
- Plant response rating, Bromegrass, Downy [4, 19]: 60
- Plant response rating, Bromegrass, Downy ([4]; Preemergence, 250 g ai/ha, scale 0 to 100 (0 no effect, 100 complete control)): 60
- Plant response rating, Velvetleaf [5, 13]: 0
- Plant response rating, Velvetleaf [5, 14]: 0
- Plant response rating, Velvetleaf [5, 15]: 0
- Plant response rating, Velvetleaf [5, 16]: 0
- Plant response rating, Velvetleaf [5, 17]: 0
- Plant response rating, Velvetleaf [5, 18]: 0
- Plant response rating, Velvetleaf [5, 19]: 0
- Plant response rating, Velvetleaf [5, 20]: 0
- Plant response rating, Pigweed [6, 13]: 0
- Plant response rating, Pigweed [6, 14]: 0
- Plant response rating, Pigweed [6, 15]: 0
- Plant response rating, Pigweed [6, 16]: 20
- Plant response rating, Pigweed [6, 17]: 85
- Plant response rating, Pigweed [6, 18]: 100
- Plant response rating, Pigweed [6, 19]: 100
- Plant response rating, Cupgrass, Woolly [7, 13]: 100
- Plant response rating, Cupgrass, Woolly [7, 14]: 100
- Plant response rating, Cupgrass, Woolly [7, 15]: 100
- Plant response rating, Cupgrass, Woolly [7, 16]: 100
- Plant response rating, Cupgrass, Woolly [7, 17]: 70
- Plant response rating, Cupgrass, Woolly [7, 18]: 70
- Plant response rating, Cupgrass, Woolly [7, 19]: 85
- Plant response rating, Cupgrass, Woolly [7, 20]: 100
- Plant response rating, Soybean (soybean (Glycine max); [13]): 0
- Plant response rating, Soybean (soybean (Glycine max); [14]): 0
- Plant response rating, Soybean (soybean (Glycine max); [19]): 0
- Plant response rating, Soybean (soybean (Glycine max); [20]): 0
- Plant response rating, Cocklebur [8, 13]: 0
- Plant response rating, Cocklebur [8, 14]: 0
- Plant response rating, Cocklebur [8, 15]: 0
- Plant response rating, Cocklebur [8, 16]: 0
- Plant response rating, Cocklebur [8, 17]: 0
- Plant response rating, Cocklebur [8, 18]: 0
- Plant response rating, Cocklebur [8, 19]: 0
- Plant response rating, Cocklebur [8, 20]: 0
- Plant response rating, Wheat [9, 13]: 60
- Plant response rating, Wheat [9, 14]: 80
- Plant response rating, Wheat [9, 15]: 95
- Plant response rating, Wheat [9, 17]: 0
- Plant response rating, Wheat [9, 18]: 65
- Plant response rating, Wheat [9, 19]: 80
- Plant response rating, Wheat [9, 20]: 95
- Plant response rating, Foxtail, Green [10, 13]: 75
- Plant response rating, Foxtail, Green [10, 14]: 100
- Plant response rating, Foxtail, Green [10, 15]: 100
- Plant response rating, Foxtail, Green [10, 16]: 100
- Plant response rating, Foxtail, Green [10, 17]: 100
- Plant response rating, Foxtail, Green [10, 18]: 100
- Plant response rating, Foxtail, Green [10, 19]: 100
- Plant response rating, Foxtail, Green [10, 20]: 100
- Plant response rating, Galium ([11]; 62 g ai/ha): 0
- Plant response rating, Galium ([11]; 125 g ai/ha): 80
- Plant response rating, Galium ([11]; 250 g ai/ha): 80
- Plant response rating, Rice (rice (Oryza sativa); [22]): 30
- Plant response rating, Rice (rice (Oryza sativa); [23]): 45
- Plant response rating, Rice (rice (Oryza sativa); [24]): 65
- Plant response rating, Rice (rice (Oryza sativa); [25]): 20

Compound: Cc1cc(-c2ccc(C(F)(F)F)cc2)nn1-c1c(O)c(C(C)C)nn(C)c1=O [Compound 27]
- Plant response rating, Goosegrass [1, 26]: 75
- Plant response rating, Goosegrass [1, 17]: 95
- Plant response rating, Goosegrass [1, 18]: 95
- Goosegrass plant response rating [1, 27]: 0
- Plant response rating, Sunflower [2, 28]: 0
- Plant response rating, Sunflower [2, 21]: 0
- Plant response rating, Sunflower ([2]; 62 g ai/ha, scale 0 to 100): 0
- Sunflower plant response rating ([2]; 8 g ai/ha, scale 0 to 100): 0
- Plant response rating, Crabgrass, Large [3, 26]: 0
- Plant response rating, Crabgrass, Large [3, 17]: 0
- Plant response rating, Crabgrass, Large [3, 18]: 0
- Crabgrass, Large plant response rating [3, 27]: 0
- Plant response rating, Bromegrass, Downy [4, 26]: 0
- Plant response rating, Bromegrass, Downy [4, 17]: 50
- Plant response rating, Bromegrass, Downy [4, 18]: 50
- Bromegrass, Downy plant response rating [4, 27]: 0
- Plant response rating, Velvetleaf [5, 26]: 0
- Plant response rating, Velvetleaf [5, 17]: 0
- Plant response rating, Velvetleaf [5, 18]: 0
- Velvetleaf plant response rating [5, 27]: 0
- Plant response rating, Pigweed [6, 26]: 0
- Plant response rating, Pigweed [6, 17]: 0
- Plant response rating, Pigweed [6, 18]: 0
- Pigweed plant response rating [6, 27]: 0
- Plant response rating, Cupgrass, Woolly [7, 26]: 0
- Plant response rating, Cupgrass, Woolly [7, 17]: 30
- Plant response rating, Cupgrass, Woolly [7, 18]: 55
- Cupgrass, Woolly plant response rating [7, 27]: 0
- Plant response rating, Soybean (soybean (Glycine max); [26]): 0
- Plant response rating, Soybean (soybean (Glycine max); [17]): 0
- Plant response rating, Soybean (soybean (Glycine max); [18]): 0
- Soybean plant response rating (soybean (Glycine max); [27]): 0
- Plant response rating, Cocklebur [8, 26]: 0
- Plant response rating, Cocklebur [8, 17]: 0
- Plant response rating, Cocklebur [8, 18]: 0
- Cocklebur plant response rating [8, 27]: 0
- Plant response rating, Wheat [9, 26]: 0
- Plant response rating, Wheat [9, 17]: 15
- Plant response rating, Wheat [9, 18]: 45
- Wheat plant response rating [9, 27]: 0
- Plant response rating, Foxtail, Green [10, 26]: 0
- Plant response rating, Foxtail, Green [10, 17]: 60
- Plant response rating, Foxtail, Green [10, 18]: 85
- Foxtail, Green plant response rating [10, 27]: 0
- Plant response rating, Russian Thistle [12, 28]: 0
- Plant response rating, Russian Thistle [12, 21]: 0
- Plant response rating, Russian Thistle ([12]; 62 g ai/ha, scale 0 to 100): 0
- Russian Thistle plant response rating ([12]; 8 g ai/ha, scale 0 to 100): 0
- Plant response rating, Rice (rice (Oryza sativa); [22]): 0
- Plant response rating, Rice (rice (Oryza sativa); [23]): 0
- Plant response rating, Rice (rice (Oryza sativa); [24]): 0
- Plant response rating, Rice (rice (Oryza sativa); [25]): 0
